# In US9834571B2, “Compounds for inhibiting cell proliferation in EGFR-driven cancers” (ARIAD Pharmaceuticals, Inc., priority 2012, dated 2017):
# Where two headings read alike, the source gives them in different places.
# Columns and labels:
# [1] = target: T1, BaF3 cells expressing the target EGFR mutations (Homo sapiens, UniProt P00533, T790M/L858R, cells depend on it); test: Antiproliferative activity (MTT) against BaF3 cells expressing the target EGFR mutations; format: cell-based; conditions: BAF3 EGFR L858R-T790M PURO POOL cells, read-out: IC50, BAF3 EGFR L858R-T790M PURO POOL
# T1 construct: IC50, BAF3 EGFR L858R-T790M PURO POOL; other: BAF3 EGFR L858R-T790M PURO POOL cells, MTT; IC50, BAF3 EGFR L858R-T790M PURO POOL; other: BAF3 EGFR L858R-T790M PURO POOL cells; MTT
# Summary of the method: (§1)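 In this screen, MTT reduction reported on proliferation of BaF3 cells dependent on mutated EGFR and of matched BaF3 cells expressing wildtype receptor.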
# [2] = target: T2, BaF3 cells expressing the target EGFR mutations (Homo sapiens, UniProt P00533, T790M, cells depend on it, form not given); test: as above; format: cell-based; conditions: BAF3 EGFR DEL T790M PURO POOL cells, read-out: IC50, BAF3 EGFR DEL T790M PURO POOL
# T2 construct: IC50, BAF3 EGFR DEL T790M PURO POOL; other: BAF3 EGFR DEL T790M PURO POOL cells, MTT; other: BAF3 EGFR DEL T790M PURO POOL cells; MTT
# T2 sequence (P00533 with tags, fused parts or gaps DEL746-750/T790M, form open): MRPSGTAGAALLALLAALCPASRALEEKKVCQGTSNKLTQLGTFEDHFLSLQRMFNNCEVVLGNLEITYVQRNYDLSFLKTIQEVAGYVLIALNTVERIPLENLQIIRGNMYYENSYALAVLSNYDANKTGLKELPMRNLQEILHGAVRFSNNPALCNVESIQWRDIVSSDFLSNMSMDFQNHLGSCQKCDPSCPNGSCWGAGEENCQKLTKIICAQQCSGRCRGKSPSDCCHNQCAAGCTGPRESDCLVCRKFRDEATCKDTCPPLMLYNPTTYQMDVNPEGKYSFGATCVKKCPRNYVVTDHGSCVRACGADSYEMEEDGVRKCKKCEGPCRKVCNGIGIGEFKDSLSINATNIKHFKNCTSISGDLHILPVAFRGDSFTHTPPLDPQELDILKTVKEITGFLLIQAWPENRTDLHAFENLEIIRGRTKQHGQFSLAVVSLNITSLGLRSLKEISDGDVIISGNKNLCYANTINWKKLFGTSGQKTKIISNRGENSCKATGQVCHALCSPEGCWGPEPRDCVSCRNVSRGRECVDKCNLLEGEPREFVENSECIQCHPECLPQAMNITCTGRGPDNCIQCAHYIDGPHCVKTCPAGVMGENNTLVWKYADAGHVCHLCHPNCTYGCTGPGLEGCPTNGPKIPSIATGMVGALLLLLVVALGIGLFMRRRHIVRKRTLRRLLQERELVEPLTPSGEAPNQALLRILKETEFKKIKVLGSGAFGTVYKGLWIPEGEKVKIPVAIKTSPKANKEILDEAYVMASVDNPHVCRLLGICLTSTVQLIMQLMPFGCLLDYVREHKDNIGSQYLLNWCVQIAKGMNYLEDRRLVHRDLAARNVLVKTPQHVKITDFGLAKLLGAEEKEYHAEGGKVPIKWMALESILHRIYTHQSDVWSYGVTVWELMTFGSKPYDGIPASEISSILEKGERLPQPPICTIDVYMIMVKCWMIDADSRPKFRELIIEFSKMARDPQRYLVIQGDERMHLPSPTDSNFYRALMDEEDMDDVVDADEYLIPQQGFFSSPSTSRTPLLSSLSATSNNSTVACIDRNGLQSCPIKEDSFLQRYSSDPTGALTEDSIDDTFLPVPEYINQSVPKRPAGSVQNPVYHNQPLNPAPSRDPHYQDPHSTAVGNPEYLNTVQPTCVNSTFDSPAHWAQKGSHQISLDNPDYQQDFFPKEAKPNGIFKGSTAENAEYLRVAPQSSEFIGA
# Summary of the method: as §1
# EGFR L858R/T790M = EGFR L858R/T790M (Homo sapiens, UniProt P00533, L858R/T790M); test: Kinase inhibitory activity against EGFR bearing the L858R/T790M double mutation; format: biochemical; conditions: 10 μM ATP, read-out: IC50 for kinase inhibition, EGFR L858R T790M
# Chain of EGFR L858R/T790M (P00533 25-1210 T790M/L858R): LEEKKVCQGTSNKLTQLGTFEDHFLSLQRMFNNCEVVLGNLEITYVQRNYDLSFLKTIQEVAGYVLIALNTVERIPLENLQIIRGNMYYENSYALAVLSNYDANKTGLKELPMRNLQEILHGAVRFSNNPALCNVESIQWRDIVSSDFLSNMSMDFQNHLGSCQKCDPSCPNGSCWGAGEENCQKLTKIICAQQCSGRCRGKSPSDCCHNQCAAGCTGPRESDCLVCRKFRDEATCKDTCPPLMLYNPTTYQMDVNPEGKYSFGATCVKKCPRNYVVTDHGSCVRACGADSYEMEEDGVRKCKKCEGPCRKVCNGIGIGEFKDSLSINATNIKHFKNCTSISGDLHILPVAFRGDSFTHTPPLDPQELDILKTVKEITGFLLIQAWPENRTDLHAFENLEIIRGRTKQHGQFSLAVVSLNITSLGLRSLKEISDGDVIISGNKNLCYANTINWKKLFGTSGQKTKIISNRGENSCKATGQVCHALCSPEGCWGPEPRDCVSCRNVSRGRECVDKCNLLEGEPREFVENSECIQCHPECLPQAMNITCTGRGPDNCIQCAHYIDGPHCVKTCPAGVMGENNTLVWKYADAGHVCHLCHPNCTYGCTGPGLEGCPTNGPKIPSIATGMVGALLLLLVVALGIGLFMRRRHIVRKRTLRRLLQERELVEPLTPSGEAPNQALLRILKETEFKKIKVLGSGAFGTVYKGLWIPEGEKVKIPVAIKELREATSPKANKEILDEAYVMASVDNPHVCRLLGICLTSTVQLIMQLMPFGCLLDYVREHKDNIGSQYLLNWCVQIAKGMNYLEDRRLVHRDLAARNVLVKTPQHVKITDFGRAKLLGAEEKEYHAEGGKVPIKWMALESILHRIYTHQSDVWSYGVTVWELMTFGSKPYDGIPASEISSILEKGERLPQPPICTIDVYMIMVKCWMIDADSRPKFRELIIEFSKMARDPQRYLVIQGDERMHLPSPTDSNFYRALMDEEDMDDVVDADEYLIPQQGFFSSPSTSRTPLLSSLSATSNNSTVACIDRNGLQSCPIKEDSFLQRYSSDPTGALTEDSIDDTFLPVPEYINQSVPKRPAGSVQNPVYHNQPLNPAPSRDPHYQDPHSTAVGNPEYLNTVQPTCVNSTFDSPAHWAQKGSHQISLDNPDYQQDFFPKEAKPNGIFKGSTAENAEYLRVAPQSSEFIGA
# Summary of the method: (§2)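 ATP was held at 10 μM while inhibition was measured across a 10-point series capped at 3 μM, single replicates.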
# [3] = system: BaF3 cells expressing wildtype EGFR; test: Antiproliferative activity (MTT) against control BaF3 cells expressing wildtype EGFR; format: cell-based; conditions: Mus musculus
# Summary of the method: as §1
# EGFR L858R = EGFR L858R (Homo sapiens, UniProt P00533, L858R); test: Kinase inhibitory activity against EGFR bearing the L858R mutation; format: biochemical; conditions: 10 μM ATP, read-out: IC50 for kinase inhibition, EGFR L858R
# Chain of EGFR L858R (P00533 25-1210 L858R): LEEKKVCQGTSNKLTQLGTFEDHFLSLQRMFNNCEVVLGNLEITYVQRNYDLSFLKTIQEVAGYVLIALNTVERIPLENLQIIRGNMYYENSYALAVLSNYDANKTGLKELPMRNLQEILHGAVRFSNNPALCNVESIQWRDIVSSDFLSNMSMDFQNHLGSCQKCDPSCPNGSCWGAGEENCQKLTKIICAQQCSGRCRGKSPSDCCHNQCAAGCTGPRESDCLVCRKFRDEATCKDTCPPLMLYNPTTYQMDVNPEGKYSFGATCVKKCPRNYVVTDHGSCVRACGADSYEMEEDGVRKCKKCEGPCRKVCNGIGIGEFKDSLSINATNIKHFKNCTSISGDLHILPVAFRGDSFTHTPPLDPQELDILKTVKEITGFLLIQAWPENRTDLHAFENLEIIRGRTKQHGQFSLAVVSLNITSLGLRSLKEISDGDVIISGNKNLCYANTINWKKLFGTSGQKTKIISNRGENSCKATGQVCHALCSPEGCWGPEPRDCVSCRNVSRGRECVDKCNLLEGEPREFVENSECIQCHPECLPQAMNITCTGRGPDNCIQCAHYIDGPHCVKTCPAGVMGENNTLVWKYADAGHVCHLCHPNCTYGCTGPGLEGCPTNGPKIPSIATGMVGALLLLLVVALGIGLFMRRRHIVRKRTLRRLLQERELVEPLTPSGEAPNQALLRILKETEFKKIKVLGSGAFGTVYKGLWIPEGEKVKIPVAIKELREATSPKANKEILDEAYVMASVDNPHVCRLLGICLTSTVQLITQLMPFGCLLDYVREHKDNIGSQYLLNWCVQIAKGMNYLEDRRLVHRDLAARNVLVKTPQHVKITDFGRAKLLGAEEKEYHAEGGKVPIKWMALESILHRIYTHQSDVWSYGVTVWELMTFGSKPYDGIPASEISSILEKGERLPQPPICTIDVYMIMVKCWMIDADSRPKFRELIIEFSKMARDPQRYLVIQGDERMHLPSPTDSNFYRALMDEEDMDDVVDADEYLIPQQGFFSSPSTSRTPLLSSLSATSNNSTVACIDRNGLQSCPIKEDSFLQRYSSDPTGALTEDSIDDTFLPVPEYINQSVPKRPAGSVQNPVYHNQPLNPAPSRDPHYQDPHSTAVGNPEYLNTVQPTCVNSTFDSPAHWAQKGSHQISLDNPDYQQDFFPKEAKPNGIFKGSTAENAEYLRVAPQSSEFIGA
# Summary of the method: as §2
# [4] = target: human EGFR (native sequence) (Homo sapiens, UniProt P00533); test: Kinase inhibitory activity against human EGFR (native sequence); format: biochemical; conditions: 10 μM ATP, read-out: IC50 for kinase inhibition, EGFR
# Chain of human EGFR (native sequence) (P00533 25-1210): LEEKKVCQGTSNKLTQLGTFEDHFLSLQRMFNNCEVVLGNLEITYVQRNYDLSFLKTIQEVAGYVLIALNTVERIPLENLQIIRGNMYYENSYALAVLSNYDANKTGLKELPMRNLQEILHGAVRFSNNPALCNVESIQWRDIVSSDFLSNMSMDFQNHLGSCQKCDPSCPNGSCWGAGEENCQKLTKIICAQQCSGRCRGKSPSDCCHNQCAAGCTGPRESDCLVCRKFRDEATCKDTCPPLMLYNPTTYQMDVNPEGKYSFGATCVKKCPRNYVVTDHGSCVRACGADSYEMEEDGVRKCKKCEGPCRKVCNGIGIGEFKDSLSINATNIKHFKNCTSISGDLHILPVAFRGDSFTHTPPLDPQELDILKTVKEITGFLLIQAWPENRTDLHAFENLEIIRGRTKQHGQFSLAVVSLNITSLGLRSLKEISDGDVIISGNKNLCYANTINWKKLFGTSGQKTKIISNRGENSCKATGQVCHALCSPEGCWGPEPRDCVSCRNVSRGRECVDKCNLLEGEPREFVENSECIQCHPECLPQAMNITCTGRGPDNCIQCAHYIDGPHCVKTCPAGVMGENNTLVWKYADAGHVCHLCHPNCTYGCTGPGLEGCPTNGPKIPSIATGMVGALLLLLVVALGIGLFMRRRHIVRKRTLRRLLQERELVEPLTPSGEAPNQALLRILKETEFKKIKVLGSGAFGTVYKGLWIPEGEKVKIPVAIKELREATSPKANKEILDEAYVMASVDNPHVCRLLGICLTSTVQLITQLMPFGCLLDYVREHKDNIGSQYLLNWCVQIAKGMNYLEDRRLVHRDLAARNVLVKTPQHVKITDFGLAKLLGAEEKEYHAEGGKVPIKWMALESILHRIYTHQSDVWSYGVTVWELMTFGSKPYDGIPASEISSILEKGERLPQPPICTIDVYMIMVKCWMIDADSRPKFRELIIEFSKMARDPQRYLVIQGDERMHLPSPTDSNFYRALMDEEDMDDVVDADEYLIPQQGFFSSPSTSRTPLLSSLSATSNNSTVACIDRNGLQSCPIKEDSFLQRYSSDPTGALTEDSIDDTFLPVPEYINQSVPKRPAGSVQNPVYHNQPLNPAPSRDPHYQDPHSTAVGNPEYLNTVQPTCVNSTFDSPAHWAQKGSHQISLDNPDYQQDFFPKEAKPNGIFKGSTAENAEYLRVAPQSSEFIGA
# Summary of the method: as §2
# [5] = 10 pt curves, 3 μM top concentration
SMILES,GI50 [1] [nM],GI50 [2] [nM],IC50 (EGFR L858R/T790M; EGFR L858R/T790M double mutation) [nM],IC50 (EGFR L858R; EGFR L858R) [nM],IC50 ([4]; human EGFR native sequence) [nM],IC50 (EGFR L858R/T790M; [5]) [nM],IC50 (EGFR L858R; [5]) [nM],"IC50 [4, 5] [nM]",IC50 ([3]; BAF3 PARENTAL cells (control)) [nM],IC50 ([3]; BAF3 parental cells) [nM]
"CC#CC(=O)Nc1cc(Nc2ncc(Cl)c(Nc3ccccc3P(C)(C)=O)n2)c(OC)cc1OCC1CCOCC1 [Example 102, N-(5-((5-chloro-4-((2-(dimethylphosphoryl)phenyl)amino)pyrimidin-2-yl)amino)-4-methoxy-2-((tetrahydro-2H-pyran-4-yl)methoxy)phenyl)but-2-ynamide]",50 to 100,< 50,≥ 250,101 to 250,≥ 250,–,–,–,≥ 250,–
"CC#CC(=O)Nc1cc(Nc2ncc(Cl)c(Nc3ccccc3P(C)(C)=O)n2)c(OC)cc1OC1COC1 [Example 103, N-(5-((5-chloro-4-((2-(dimethylphosphoryl)phenyl)amino)pyrimidin-2-yl)amino)-4-methoxy-2-(oxetan-3-yloxy)phenyl)but-2-ynamide]",50 to 100,< 50,–,–,–,50 to 100,< 50,≥ 250,–,≥ 250
"C=CC(=O)Nc1ccc(Nc2ncc(Cl)c(Nc3cccc(OCCN4CCCCC4)c3P(C)(C)=O)n2)c(OC)c1 [Example 107, N-(4-((5-chloro-4-((2-(dimethylphosphoryl)-3-(2-(piperidin-1-yl)ethoxy)phenyl)amino)pyrimidin-2-yl)amino)-3-methoxyphenyl)acrylamide]",101 to 250,< 50,–,–,–,< 50,< 50,101 to 250,–,≥ 250
"C=CC(=O)Nc1ccc(OC)c(Nc2ncc(Cl)c(Nc3ccc(OCCN4CCCCC4)cc3P(C)(C)=O)n2)c1 [Example 108, N-(3-((5-chloro-4-((2-(dimethylphosphoryl)-4-(2-(piperidin-1-yl)ethoxy)phenyl)amino)pyrimidin-2-yl)amino)-4-methoxyphenyl)acrylamide]",< 50,< 50,–,–,–,< 50,< 50,< 50,–,≥ 250
"CNC(=O)/C=C/C(=O)Nc1ccc(OC)c(Nc2ncc(Cl)c(Nc3ccccc3P(C)(C)=O)n2)c1 [Example 109, N1-(3-((5-chloro-4-((2-(dimethylphosphoryl)phenyl)amino)pyrimidin-2-yl)amino)-4-methoxyphenyl)-N4-methylfumaramide]",101 to 250,50 to 100,–,–,–,< 50,< 50,≥ 250,–,≥ 250

# The next lines start with results.
GI50 [1] [nM],GI50 [2] [nM],IC50 (EGFR L858R/T790M; EGFR L858R/T790M double mutation) [nM],IC50 (EGFR L858R; EGFR L858R) [nM],IC50 ([4]; human EGFR native sequence) [nM],IC50 (EGFR L858R/T790M; [5]) [nM],IC50 (EGFR L858R; [5]) [nM],"IC50 [4, 5] [nM]",SMILES,IC50 ([3]; BAF3 PARENTAL cells (control)) [nM],IC50 ([3]; BAF3 parental cells) [nM]
< 50,< 50,–,–,–,< 50,< 50,< 50,"COc1cc(N2CCOCC2)c(NC(=O)C#CCN(C)C)cc1Nc1ncc(Cl)c(Nc2ccccc2P(C)(C)=O)n1 [Example 104, N-(5-((5-chloro-4-((2-(dimethylphosphoryl)phenyl)amino)pyrimidin-2-yl)amino)-4-methoxy-2-morpholinophenyl)-4-(dimethylamino)but-2-ynamide]",–,≥ 250
< 50,< 50,–,–,–,< 50,< 50,< 50,"COCC#CC(=O)Nc1cc(Nc2ncc(Cl)c(Nc3ccccc3P(C)(C)=O)n2)c(OC)cc1N1CCOCC1 [Example 105, N-(5-((5-chloro-4-((2-(dimethylphosphoryl)phenyl)amino)pyrimidin-2-yl)amino)-4-methoxy-2-morpholinophenyl)-4-methoxybut-2-ynamide]",–,≥ 250
< 50,< 50,–,–,–,< 50,< 50,50 to 100,"CC#CC(=O)Nc1cc(Nc2ncc(Cl)c(Nc3ccccc3P(C)(C)=O)n2)c(OC)cc1N1CCC(N2CCN(C)CC2)CC1 [Example 106, N-(5-((5-chloro-4-((2-(dimethylphosphoryl)phenyl)amino)pyrimidin-2-yl)amino)-4-methoxy-2-(4-(4-methylpiperazin-1-yl)piperidin-1-yl)phenyl)but-2-ynamide]",–,≥ 250
